Patent publication US20150283051A1, “DERIVATIVE OF NOVEL POLYHYDROXY AROMATIC COMPOUND AND USE THEREOF” (RNS CO.,LTD., priority 2012, published 2015)

Columns and labels:
[1] = test system: B-16 mouse melanoma cells; test: Measurement of melanin generation inhibitory effects in cultured melanoma cells; type: cell-based; settings: for inhibition at 20 µg/mL: concentration 20 μg/ml
[2] = test system: B-16 mouse melanoma cells; settings: 1 μg/ml or more
Experimental: Then, these cells were treated using trypsin, separated from a culture vessel and centrifuged, then, melanin was extracted from the cells. Melanin was dissolved by adding 1 ml of 1N sodium hydroxide solution to the extract and subjected to measurement of absorbance at 475 nm, and an amount of the generated melanin was expressed by an absorbance per unit number of cells (10^6 cells) (this procedure was repeated three times).

[3] = Mus musculus, 72 h, concentration 5 μg/ml, cultured 3 days, relative to control, read-out: Inhibition rate (melanin generation)
[4] = Mus musculus, 72 h, cultured 3 days, relative to control, read-out: Inhibition rate (melanin generation)

Row | Structure (SMILES) | inhibition at 5 µg/mL [1, 3] | inhibition at 20 µg/mL [1, 4] | inhibition at 1 µg/mL ([1]; Mus musculus, 72 h, concentration 1 μg/ml, cultured 3 days, relative to control, read-out: Inhibition rate (melanin generation)) | Inhibition rate (melanin generation) ([1]; concentration 5 μg/ml, cultured 3 days, relative to control) | Melanin generation inhibitory effects (in words) ([1]; cultured mouse melanoma cells, comparison with hydroquinone) | Cytotoxicity [2]
1 | CCCCC(CC)C(=O)Oc1ccc(C=Cc2cc(OC(=O)C(CC)CCCC)cc(OC(=O)C(CC)CCCC)c2)cc1 (stereo not drawn) [Material in Example 11, 3,4′,5-tris-(2-ethylhexanoyloxy)-stilbene] | 31% | 54% | – | – | – | –
2 | CCCCC(CC)C(=O)Oc1ccnc(OC(=O)C(CC)CCCC)c1 (stereo not drawn) [Material in Example 9, 2,4-bis-(2-ethylhexanoyloxy)-pyridine] | 41% | 67% | – | – | – | –
3 | CCCCC(CC)C(=O)Oc1cccc(OC(=O)C(CC)CCCC)c1 (stereo not drawn) [Material in Example 5, 1,3-bis-(2-ethyl-hexanoyloxy)-benzene] | 45% | 79% | – | – | – | –
4 | CC(C)=CC(=O)Oc1cccc(OC(=O)C=C(C)C)c1 [Material in Example 3, 1,3-bis-(3-methyl-2-butenoyloxy)-benzene] | 53% | 83% | – | – | – | –
5 | CCCCC(CC)C(=O)Oc1cc(OC(=O)C(CC)CCCC)c2ccccc2c1 (stereo not drawn) [Material in Example 8, 1,3-bis-(2-ethylhexanoyloxy)-naphthalene] | 35% | 63% | – | – | – | –
6 | CCCCC(CC)C(=O)Oc1ccc(-c2cc(=O)c3c(OC(=O)C(CC)CCCC)cc(OC(=O)C(CC)CCCC)cc3o2)cc1 (stereo not drawn) [Material in Example 14, 5,7,4′-tris-(2-ethylhexanoyloxy)-flavone] | 31% | 57% | – | – | – | –
7 | CCCCCCCC(=O)Oc1cccc(OC(=O)CCCCCCC)c1 [Material in Example 4, 1,3-bis-octanoyloxy-benzene] | 41% | 71% | – | – | – | –
8 | CCCCCCCCCCCC(=O)Oc1cccc(OC(=O)CCCCCCCCCCC)c1 [Material in Example 7, 1,3-bis-lauroyloxy-benzene] | 21% | 43% | – | – | – | –
9 | CCCCC(CC)C(=O)Oc1cccc(OC(=O)C(CC)CCCC)c1OC(=O)C(CC)CCCC (stereo not drawn) [Material in Example 10, 1,2,3-tris-(2-ethylhexanoyloxy)-benzene] | 38% | 65% | – | – | – | –
10 | Oc1ccc(O)cc1 [Hydroquinone, hydroquinone, reference compound] | – | – | 52% | Apoptosis | strong effects of inhibiting melanin generation at a low concentration | serious cytotoxicity
11 | CCCCCCCCCC(=O)Oc1cccc(OC(=O)CCCCCCCCC)c1 [Material in Example 6, 1,3-bis-decanoyloxy-benzene] | 32% | 53% | – | – | – | –
12 | CCCCC(CC)C(=O)Oc1cc2oc(-c3ccccc3)cc(=O)c2c(OC(=O)C(CC)CCCC)c1OC(=O)C(CC)CCCC (stereo not drawn) [Material in Example 15, 5,6,7-tris-(2-ethylhexanoyloxy)-flavone] | 39% | 72% | – | – | – | –
13 | CCCCC(CC)C(=O)Oc1ccc(-c2oc3cc(OC(=O)C(CC)CCCC)cc(OC(=O)C(CC)CCCC)c3c(=O)c2OC(=O)C(CC)CCCC)cc1 (stereo not drawn) [Material in Example 17, 3,5,7,4′-tetrakis-(2-ethylhexanoyloxy)-flavone] | 32% | 69% | – | – | – | –
14 | CCCC(=O)Oc1cccc(OC(=O)CCC)c1 [Material in Example 1, 1,3-bis-butyryloxy-benzene] | 43% | 68% | – | – | – | –
15 | CCCCC(CC)C(=O)Oc1ccc(-c2coc3cc(OC(=O)C(CC)CCCC)cc(OC(=O)C(CC)CCCC)c3c2=O)cc1 (stereo not drawn) [Material in Example 12, 4′,5,7-tris-(2-ethylhexanoyloxy)-isoflavone] | 35% | 65% | – | – | – | –
16 | CCCCC(=O)Oc1cccc(OC(=O)CCCC)c1 [Material in Example 2, 1,3-bis-pentanoyloxy-benzene] | 52% | 85% | – | – | – | –
17 | CCCCC(CC)C(=O)Oc1cc(OC(=O)C(CC)CCCC)c2c(c1)OC(c1ccc(OC(=O)C(CC)CCCC)c(OC(=O)C(CC)CCCC)c1)C(OC(=O)C(CC)CCCC)C2 (stereo not drawn) [Material in Example 19, 3,3′,4′,5,7-pentakis-(2-ethylhexanoyloxy)-flavane] | 39% | 69% | – | – | – | –
18 | CCCCC(CC)C(=O)Oc1cc(OC(=O)C(CC)CCCC)c2c(=O)c(OC(=O)C(CC)CCCC)c(-c3ccccc3)oc2c1 (stereo not drawn) [Material in Example 13, 3,5,7-tris-(2-ethylhexanoyloxy)-flavone] | 30% | 63% | – | – | – | –
19 | CCCCC(CC)C(=O)Oc1ccc(C2CC(=O)c3c(OC(=O)C(CC)CCCC)cc(OC(=O)C(CC)CCCC)cc3O2)cc1 (stereo not drawn) [Material in Example 16, 4′,5,7-tris-(2-ethylhexanoyloxy)-flavanone] | 41% | 59% | – | – | – | –
20 | CCCCC(CC)C(=O)Oc1cc(C=Cc2ccc(OC(=O)C(CC)CCCC)c(OC(=O)C(CC)CCCC)c2)cc(OC(=O)C(CC)CCCC)c1 (stereo not drawn) [Material in Example 18, 3,4,3′,5′-tetrakis-(2-ethylhexanoyloxy)-stilbene] | 47% | 72% | – | – | – | –
